The subject of one assay is RD xenografts. Description: targeted doxorubicin treatment of RD xenografts.
Assay [1] deals with RD cells. Description: competition of phage RMS-P3 binding by synthetic peptide. The class given is cell-based. The following applies: for regression slope b of phage RMS-P3 binding versus peptide concentration: least-squares regression, N = 18, RMS-P3 r^2 = 0.889, p<0.0001, control r^2 = 0.0002, p = 0.959. The procedure: Figure 1 Validation of selected phages binding on RMS cells in vivo and in vitro. (A) Quantification of binding of single phage clones to different cell lines. Six phages selected from in vitro and in vivo screenings were validated individually in binding assays to three RMS cell lines (embryonal RMS: RD; alveolar RMS: Rh30 and Rh4) as well as to normal myoblasts (SkMC-c) and fibroblast cells (MRC-5). Phage clones are ordered according to the frequency of occurrence. Binding was calculated over non-recombinant T7, depicted are mean values ± SD of three independent experiments. (B) RMS-P3 and RMS-P6 phage distribution in RD mouse xenografts. Homing of phages to tumor was compared to control organs. Binding was normalized over phage T7 and tissue weight. Mean values ± SD of four independent experiments are shown. Numerical values for tumor to organ ratios are indicated above the bars. (C) Validation of RMS-P3 peptide sequence by competition of phage binding. 10^6 RD cells were incubated for 30 min with increasing concentrations of RMS-P3 peptide ([…]) or control peptide ([…]). Then, phages (10^9 pfu) were added for 1 h. Phage binding was normalized over non-recombinant T7. Data are presented as percentage of maximal phage binding obtained in the absence of synthetic peptide. Error bars indicate mean ± SD from three independent experiments. […] TEXT PRINTED IN THE PICTURE: (B) RMS-P6: tumor: 1; muscle: 1/6; kidney: 1/8; brain: 1/28; skin: 1/12 | (B) RMS-P3: tumor: 1; muscle: 1/24; kidney: 1/15; brain: 1/12; skin: 1/10 DOUBTS OF THE COPYIST ABOUT THIS PICTURE: Panel B: the picture prints no measure for the numbers over the bars. Each tissue name was assigned from the bar fill and the order of the printed key. / RMS-P6, brain: 1/28, the last digit may be 8 or 6 (small print)
(§1) 10^6 RD cells were detached (2.5 mM EDTA-PBS) and reconstituted (DMEM/1% BSA). Cells were preincubated with 100 µl of peptides (RMS-P3 or RMS-Pctrl) or general PC inhibitor decanoyl-Arg-Val-Lys-Arg-chloromethylketone (Dec-RVKR-cmk, Calbiochem, Switzerland) for 30 minutes. Phages (10^9 pfu) were added for 1 hour at RT under continuous rotation. Cells were washed four times with DMEM/1% BSA; titer of bound phage was determined by titration with BLT5403 and calculated over non-recombinant T7.

The subject of assay [2] is RD cells. Briefly: competition of phage RMS-P3/RR binding by Dec-RVKR-cmk. The assay is classed as cell-based. The procedure:
Figure 4 RMS-P3/RR phage binding correlates with furin expression levels. (A) Binding of phage RMS-P3/RR to untransfected (MRC-5), furin-overexpressing (MRC-FUR) and empty vector transfected MRC-5 fibroblasts (MRC-EV) was tested in vitro. Phage binding was quantified over control T7. Results of three independent experiments ± SD are shown. Western blot of the same samples for furin expression and PCNA as loading control (A, lower panels) (B) Micrographs of MRC-5 fibroblasts (upper row) and MRC-5-FUR (lower row) cells incubated with 100 nM FITC-RMS-P3/RR (green) for 1h at RT, fixed and stained with the anti-furin-antibody Mon-152 (red). Nuclei are visualized by DAPI staining (blue). Yellow indicates overlap of the two stainings. Magnification: 40x; scale bars: 20 µm. (C) Inhibition of furin maturation in α1-PDX-transfected RD cells reduces phage binding. Phage RMS-P3/RR binding to untransfected RD, furin-inhibited RD-PDX and empty-vector transfected RD-EV cells was determined over non-recombinant T7 in three independent experiments (means ± SD). Expression of the inhibitor α1-PDX was confirmed by western blotting using 100 µg cell extract with antiserum against α1AT (C, lower panels). (D) Effect of the specific PC-inhibitor Dec-RVKR-cmk on phage RMS-P3/RR binding. Competition was performed with increasing concentrations of Dec-RVKR-cmk and constant amounts of phage (10^9 pfu). Phage binding was calculated over T7.
as §1

Positions of bridges follow the written chain, without caps; N, C: chain ends. No end group written: not given here.

This is an account of results in PMC2862740, “Furin Targeted Drug Delivery for Treatment of Rhabdomyosarcoma in a Mouse Model” (PLoS ONE, 2010).

As a reminder, the IC50 is the point on the concentration scale where inhibition reaches its midpoint.

Method for RD xenografts: Five groups of 6 mice were treated when tumors reached 60 mm^3 in size. Treatment consisted of weekly tail vein injections for 30 days.
CD1-Nu/nu mice (4 to 6 weeks old, Charles River, Germany) were used for the in vivo screening, and 6 weeks old NOD/SCID IL2R γ-/- mice were used for all other studies. RMS cells (5×10^6 in 150 µl HBSS) were injected subcutaneously into the dorsolateral flank of the mice. Both diameters (d) of the spherical tumors were measured twice weekly and the volume was calculated with the general formula V = (4/3) πr^3, whereby r = (d1+d2)/4. Prior to the experiment, mice were anesthetized with 0.015 ml/g avertin by i.p. injection. 1 mg/ml of FITC-peptide in 250 µl PBS was injected by tail vein injection into mice bearing tumors 150 mm^3 in size. After 10 minutes circulation, mice were perfused, tumor and control organs were dissected and frozen in O.C.T. embedding medium (Leica Microsystems, Germany). 10 µm cryosections were washed with PBS, fixed for 15 minutes in ice-cold methanol and air-dried. Endothelial stainings were performed using rat monoclonal antibodies against mouse markers CD31 and MECA-32, both at the dilution of 1∶50 (BD biosciences, Switzerland). A rabbit polyclonal anti-furin-antibody (Abcam) was used at a dilution of 1∶1500. All corresponding secondary antibodies were AlexaFluor594-labeled IgGs (1∶300, Invitrogen).
Mice with size-matched tumors (∼60 mm^3) were randomized into five groups and injected once per week for 4 consecutive weeks. […] Control groups received either a mixture of 10 µg free doxorubicin and peptide RMS-P3/RR, an equimolar solution of peptide RMS-P-3/RR alone or PBS alone. Concentrations were confirmed by measuring the absorbance of conjugated doxorubicin at 490 nm. […] Mice were monitored for weight and tumor growth for 30 days.

As for “Doxorubicin-succinyl-GG-CMGTINTRTRRC (disulfide) [Dox-RMS-P3/RR]”, in the assay on RD xenografts (10 µg doxorubicin equivalent/week i.v., student's t-test, p<0.05), the “tumor size compared to Dox alone, Dox and peptide, peptide alone or vehicle” value is recorded as “significantly smaller”. Also, in the assay with RD xenografts (RMS in mice), the “increase in therapeutic efficacy compared to doxorubicin treatment alone” value is given as “two-fold”. Moreover, in the assay on RD xenografts (weekly tail vein injections, 30 days), the “delay in tumor growth compared to untargeted drug delivery” value was “significant delay in tumor growth”.
Take “CMGTINTRTKKC (disulfide 1-12 (inferred)) [RMS-P3]”: in the assay with RD cells [1] (RD cells, 10^6, peptide preincubated 30 min, then phage 10^9 pfu 1 h at RT, three independent experiments, read-out: Half-maximal inhibition (IC50) of phage RMS-P3 binding), the IC50 is ~100 nM. In the assay on RD cells [1], the “regression slope b of phage RMS-P3 binding versus peptide concentration” value is reported as −17.5. In addition, the “phage RMS-P3 binding remaining” value with RD cells [1] (peptide at highest concentration tested (10 µM), percentage of maximal phage binding) is recorded as 7.5%.
Turning to “decanoyl-Arg-Val-Lys-Arg-chloromethylketone [Dec-RVKR-cmk]”, in the assay with RD cells [2] (1 µM Dec-RVKR-cmk, RD cells, 30 min preincubation, phage 10^9 pfu 1 h), the “phage RMS-P3/RR binding in presence of inhibitor” value is “half-maximal”. The “effect on binding of control phage RMS-P3/AA” value with RD cells [2] (Dec-RVKR-cmk, RD cells) is on record as “remained unaffected”. The “regression slope b of phage RMS-P3/RR binding versus Dec-RVKR-cmk concentration” value with RD cells [2] (least-squares regression, N = 18, r^2 = 0.883, p<0.0001) is listed as −17.9.
Take “CSPNNTRRPNKC (disulfide 1-12 (inferred)) [RMS-Pctrl]”: the “effect on phage RMS-P3 binding” value in the assay with RD cells [1] (increasing peptide concentrations) is reported as “no effect”. Moreover, in the assay on RD cells [1], the “regression slope b of phage RMS-P3 binding versus peptide concentration” value was 0.055.
